Measured values published in PMC8344021, “Discovery of Small Molecule Bak Activator for Lung Cancer Therapy” (Theranostics, 2021).
Entries after “also recorded” stand apart in the source; their conditions may differ.

What was measured:
[1] = tested on: Cyt c release in A549 cells; test: Cyt c release from mitochondria in cells (subcellular fractionation, Western blot); type: cell-based, human; conditions: 24h
Procedure: To further test whether Bak is required for BKA-073 induction of Cyt c release, A549 parental, Bak^-/-, Bax^-/- and DKO cells were treated with BKA-073 (1 μM) for 24h, followed by analysis of Cyt c release from mitochondria. […] To further test whether BKA-073 directly induces Cyt c release from isolated mitochondria in a Bak- but not Bax-dependent fashion, purified mitochondria were isolated from A549 parental, Bak^-/-, Bax^-/- and DKO cells. The isolated mitochondria were treated with BKA-073 (1 μM) for 30 min at 30 °C. After centrifugation at 13000 g for 5 min, Cyt c in the supernatant (i.e., Cyt c release) was analyzed by Western blot. […]
Bak proteins was eluted with buffer B (20 mM Tris, pH 8.0, 120 mM NaCl, 300 mM imidazole, 10% glycerol with protease inhibitor). The elution peak of interest was checked by SDS -PAGE electrophoresis. The purified mouse Bak protein was dialyzed with buffer A . […]
Subcellular fractionation
Cells (2 ×107) were washed with cold 1× PBS and resuspended in isotonic mitochondrial buffer (210 mM mannitol, 70 mM sucrose, 1 mM EGTA, 10 mM Hepes, pH 7.5) containing 10% protease inhibitor mixture set I, homogenized with a polytron homogenizer, and then centrifuged at 1000 × g for 5 min to remove the nuclei and unbroken cells. The supernatant was centrifuged at 13,000 × g for 10 min to pellet mitochondria. […] Cyt c was analyzed

[2] = tested on: MDA-MB-231, MCF7, HCT-116, Ramos, OPM-1, PANC-1 and U2OS cell lines; test: Apoptotic cell death in other types of cancer cell lines; type: cell-based, human; conditions: 1μM, 72h
Procedure: Figure S2. BKA-073 induces mitochondrial priming and apoptosis in various type of cancers. (A) Expression levels of Bak were analyzed by Western blot in various type of cancer cell lines. (B-C) Various type of cancer cell lines were treated with BKA -073 (1µM) for 16h or 72h, followed by analysis of dynamic BH3 profiling (B) or apoptotic cell death (C), respectively.
Data represent the mean ± SD, n = 3 per group. ***P < 0.001, by 2-tailed t test.
(1 picture or pasted object on this page, not shown here)
Supplemental Materials and Methods
Small molecule NSC14073 (BKA-073) was obtained from the Drug Synthesis and Chemistry Branch, Developmental Therapeutic Program, Division of Cancer Treatment and Diagnosis, National Cancer Institute (NCI, Bethesda, MD) (http://dtp.nci.nih.gov/RequestCompounds).
Venetoclax (ABT-199, 205807) was purchased from MedKoo Biosciences (Morrisville, NC). […]
Cells were seeded at a density of 5 × 103 per well in 96-well plates and allowed to grow overnight. After treatment with BKA-073, the surviving cell fraction was determined using the sulforhodamine B (SRB) assay as described. Optical density (OD) was measured at 510nm in a microplate reader (Synergy H1, BioTek®, Winooski, VT). […]
Apoptotic cells were detected using Annexin-V Apoptosis Detection Kit (556547, BD Biosciences, San Jose, CA) according to the manufacturer’s instructions. […]

Compound: COc1ccc2nc3ccccc3c(NCCNCC(C)O)c2c1 (stereo not drawn) [BKA-073]
- Cyt c release ([1]; A549 Bax-/- cells, 1 μM): Cyt c release was observed
- Cyt c release ([1]; A549 parental cells): promoted Cyt c release from mitochondria; also recorded: Cyt c release was observed
- induction of apoptotic cell death [2]: potently induced
